In brackets after ≈: the same amount, converted by molar mass. Where a name gives a salt, the structure may show the parent alone.

Usually solubility stands for the dissolved amount per volume that the medium holds.

A short description of data set [1]: Conversion of crystalline forms of atrasentan hydrochloride to Form 2 in representative solvents at 25° C. In kind it is physicochemical. Set-up: key: 1, 2 and 3 mean Atrasentan Hydrochloride Crystalline Forms 1, 2 and 3, respectively.; 1, 2 and 3 mean Atrasentan Hydrochloride Crystalline Forms 1, 2 and 3, respectively.; 1, 2 and 3 mean Atrasentan Hydrochloride Crystalline Forms 1, 2 and 3, respectively. On the procedure:
Examples of representative solvents that are useful for converting a particular crystalline form of atrasentan hydrochloride to Atrasentan Hydrochloride Crystalline Form 2 having substantial crystalline purity at 25° C. are shown in TABLE 2.

Data set [2] can be described thus: Solubility of Atrasentan Hydrochloride Crystalline Forms in 1,4-dioxane. In kind it is physicochemical. To be noted: 1,4-dioxane at 25° C. (n=3). How it is done:
The solubility (in mg/mL) of Atrasentan Hydrochloride Crystalline Forms 1, 2 and 3 in 1,4-dioxane at 25° C.

With `CCCCN(CCCC)C(=O)CN1C[C@H](c2ccc3c(c2)OCO3)[C@@H](C(=O)O)[C@@H]1c1ccc(OC)cc1` [atrasentan hydrochloride, (2R,3R,4S)-(+)-2-(4-methoxyphenyl)-4-(1,3-benzodioxol-5-yl)-1-(N,N-di(n-butyl)aminocarbonylmethyl)pyrrolidine-3-carboxylic acid], the crystalline form present in data set [1] (0.1M HCl, week 1, 25° C.) came to 1; in data set [1] (0.1M HCl, week 2, 25° C.) it was 1; in data set [1] (0.1M HCl, week 4, 25° C.) it was 1; in data set [1] (0.1M HCl, week 9, 25° C.), 2; in data set [1] (0.1M HCl, week 16, 25° C.), 2; in data set [1] (IPA (isopropyl alcohol), week 1, 25° C.) it was 1. Moreover, the crystalline form present turned out to be 1 in data set [1] (IPA (isopropyl alcohol), week 2, 25° C.); 2 in data set [1] (IPA (isopropyl alcohol), week 4, 25° C.); 2 in data set [1] (IPA (isopropyl alcohol), week 9, 25° C.); 2 in data set [1] (IPA (isopropyl alcohol), week 16, 25° C.); 1 in data set [1] (PEG 400 (polyethylene glycol), week 1, 25° C.); 1 in data set [1] (PEG 400 (polyethylene glycol), week 2, 25° C.). Moreover, the crystalline form present in data set [1] (PEG 400 (polyethylene glycol), week 4, 25° C.) worked out at 1; in data set [1] (PEG 400 (polyethylene glycol), week 9, 25° C.), 1; in data set [1] (PEG 400 (polyethylene glycol), week 16, 25° C.) it was 2; in data set [1] (acetone, week 1, 25° C.), 2; in data set [1] (acetone, week 2, 25° C.), 2; in data set [1] (acetone, week 4, 25° C.), 2. In addition, the crystalline form present is on record as 2 in data set [1] (acetone, week 9, 25° C.); 2 in data set [1] (acetone, week 16, 25° C.); 2 in data set [1] (ethanol, week 1, 25° C.); 2 in data set [1] (ethanol, week 2, 25° C.); 2 in data set [1] (ethanol, week 4, 25° C.); 2 in data set [1] (ethanol, week 9, 25° C.). For the same compound, the crystalline form present in data set [1] (ethanol, week 16, 25° C.) worked out at 2; in data set [1] (ethyl acetate, week 1, 25° C.), 1; in data set [1] (ethyl acetate, week 2, 25° C.), 1; in data set [1] (ethyl acetate, week 4, 25° C.), 1; in data set [1] (ethyl acetate, week 9, 25° C.), 2; in data set [1] (ethyl acetate, week 16, 25° C.), 2. For the same compound, the crystalline form present in data set [1] (nitromethane, week 1, 25° C.) turned out to be 3; in data set [1] (nitromethane, week 2, 25° C.), 3; in data set [1] (nitromethane, week 4, 25° C.) it was 3; in data set [1] (nitromethane, week 9, 25° C.), 3; in data set [1] (nitromethane, week 16, 25° C.), 2.

For `CCCCN(CCCC)C(=O)CN1C[C@H](c2ccc3c(c2)OCO3)[C@@H](C(=O)O)[C@@H]1c1ccc(OC)cc1` [Form 3, (2R,3R,4S)-(+)-2-(4-methoxyphenyl)-4-(1,3-benzodioxol-5-yl)-1-(N,N-di(n-butyl)aminocarbonylmethyl)pyrrolidine-3-carboxylic acid], in data set [2], the solubility is on record as 16.53 ± 0.22 mg/mL (≈ 32.4 mM).

The values above are taken from patent US20060063825A1, “Crystalline form of a drug” (priority 2004, published 2006).
